Data from PubChem BioAssay (NCI).
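In this assay, cells in 96-well plates receive the compound at five concentrations for 48 hours. Endpoints are linearly interpolated between the surrounding concentrations. TGI marks complete inhibition of growth.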

Key:
Assay in all cases: NCI tumour cell line growth inhibition, 48 h
M14 melanoma = test system: M14 melanoma
HS 578T breast = test system: HS 578T breast
UACC-257 melanoma = test system: UACC-257 melanoma
BT-549 breast = test system: BT-549 breast
PC-3 prostate = test system: PC-3 prostate
NCI-H460 lung = test system: NCI-H460 lung
MDA-N = test system: MDA-N
ACHN renal = test system: ACHN renal
HCT-116 colon = test system: HCT-116 colon
MDA-MB-435 = test system: MDA-MB-435
OVCAR-8 ovarian = test system: OVCAR-8 ovarian
CCRF-CEM leukemia = test system: CCRF-CEM leukemia
SF-268 CNS = test system: SF-268 CNS
IGROV1 ovarian = test system: IGROV1 ovarian
NCI-H23 lung = test system: NCI-H23 lung
COLO 205 colon = test system: COLO 205 colon
SNB-19 CNS = test system: SNB-19 CNS
A498 renal = test system: A498 renal
A549 NSCLC = test system: A549 NSCLC
TK-10 renal = test system: TK-10 renal
SR leukemia = test system: SR leukemia
SK-MEL-2 melanoma = test system: SK-MEL-2 melanoma
U251 CNS = test system: U251 CNS
SN12C renal = test system: SN12C renal
MDA-MB-231 breast = test system: MDA-MB-231 breast
UACC-62 melanoma = test system: UACC-62 melanoma
MALME-3M melanoma = test system: MALME-3M melanoma
MOLT-4 leukemia = test system: MOLT-4 leukemia
K-562 leukemia = test system: K-562 leukemia
CAKI-1 renal = test system: CAKI-1 renal
NCI/ADR-RES ovarian = test system: NCI/ADR-RES ovarian
RXF 393 renal = test system: RXF 393 renal
NCI-H226 lung = test system: NCI-H226 lung
HOP-92 NSCLC = test system: HOP-92 NSCLC
HCT-15 colon = test system: HCT-15 colon
EKVX NSCLC = test system: EKVX NSCLC
UO-31 renal = test system: UO-31 renal
SK-OV-3 ovarian = test system: SK-OV-3 ovarian
SF-295 CNS = test system: SF-295 CNS
SK-MEL-28 melanoma = test system: SK-MEL-28 melanoma
SW-620 colon = test system: SW-620 colon
SK-MEL-5 melanoma = test system: SK-MEL-5 melanoma
786-0 renal = test system: 786-0 renal
NCI-H522 lung = test system: NCI-H522 lung
KM12 colon = test system: KM12 colon
HCC-2998 colon = test system: HCC-2998 colon
HT29 colon = test system: HT29 colon
OVCAR-4 ovarian = test system: OVCAR-4 ovarian
T-47D breast = test system: T-47D breast
OVCAR-3 ovarian = test system: OVCAR-3 ovarian
SNB-75 CNS = test system: SNB-75 CNS
OVCAR-5 ovarian = test system: OVCAR-5 ovarian
MCF7 breast = test system: MCF7 breast
HOP-62 NSCLC = test system: HOP-62 NSCLC
LOX IMVI melanoma = test system: LOX IMVI melanoma
RPMI-8226 leukemia = test system: RPMI-8226 leukemia
DU-145 prostate = test system: DU-145 prostate
SF-539 CNS = test system: SF-539 CNS

For `CC(C)C(C/C=C1\CC(CO)(COC(=O)c2ccccc2)OC1=O)C(C)C` (stereo not drawn), the TGI (M14 melanoma) was 32.8 µM, the TGI (HS 578T breast) was 33.4 µM and the TGI (UACC-257 melanoma) was 70.6 µM. It also gave a TGI (BT-549 breast) of 36.9 µM, a TGI (PC-3 prostate) of 32.5 µM and a TGI (NCI-H460 lung) of 43.7 µM. The TGI (MDA-N) was 57.8 µM, the TGI (ACHN renal) was 32 µM and the TGI (HCT-116 colon) was 31 µM. It also gave a TGI (MDA-MB-435) of over 100 µM, a TGI (OVCAR-8 ovarian) of 36 µM and a TGI (CCRF-CEM leukemia) of 44.1 µM. For the same molecule, the TGI (SF-268 CNS) was 35.5 µM, the TGI (IGROV1 ovarian) was 37.2 µM and the TGI (NCI-H23 lung) was 38 µM. It also gave a TGI (COLO 205 colon) of 25.4 µM, a TGI (SNB-19 CNS) of 31.8 µM and a TGI (A498 renal) of 50.7 µM. It also gave a TGI (A549 NSCLC) of 30.5 µM, a TGI (TK-10 renal) of 34.2 µM and a TGI (SR leukemia) of over 100 µM. The TGI (SK-MEL-2 melanoma) was over 100 µM, the TGI (U251 CNS) was 39.1 µM and the TGI (SN12C renal) was 31.1 µM. It also gave a TGI (MDA-MB-231 breast) of 44.2 µM, a TGI (UACC-62 melanoma) of over 100 µM and a TGI (MALME-3M melanoma) of 31.9 µM. The TGI (MOLT-4 leukemia) was 42.6 µM, the TGI (K-562 leukemia) was 44.1 µM and the TGI (CAKI-1 renal) was 33.8 µM. The TGI (NCI/ADR-RES ovarian) was 45 µM, the TGI (RXF 393 renal) was 45.4 µM and the TGI (NCI-H226 lung) was 39.8 µM. For the same molecule, the TGI (HOP-92 NSCLC) was 29.3 µM, the TGI (HCT-15 colon) was 41 µM and the TGI (EKVX NSCLC) was 29.8 µM. The TGI (UO-31 renal) was 32.4 µM, the TGI (SK-OV-3 ovarian) was 87.9 µM and the TGI (SF-295 CNS) was 28.7 µM. It also gave a TGI (SK-MEL-28 melanoma) of 30.2 µM, a TGI (SW-620 colon) of 33.8 µM and a TGI (SK-MEL-5 melanoma) of 29.7 µM. For the same molecule, the TGI (786-0 renal) was 28.3 µM, the TGI (NCI-H522 lung) was 38.5 µM and the TGI (KM12 colon) was 35.6 µM. For the same molecule, the TGI (HCC-2998 colon) was 44.8 µM, the TGI (HT29 colon) was 38.2 µM and the TGI (OVCAR-4 ovarian) was 35.6 µM. The TGI (T-47D breast) was over 100 µM, the TGI (OVCAR-3 ovarian) was 37.7 µM and the TGI (SNB-75 CNS) was 29.1 µM. The TGI (OVCAR-5 ovarian) was 28 µM, the TGI (MCF7 breast) was 40.9 µM and the TGI (HOP-62 NSCLC) was 28.7 µM. It also gave a TGI (LOX IMVI melanoma) of 54.6 µM.

`CCOC(=O)Nc1c(C#N)[n+]([O-])c2cc(Cl)c(Cl)cc2[n+]1[O-]` showed a TGI (M14 melanoma) of 38.9 µM, a TGI (HS 578T breast) of over 100 µM and a TGI (UACC-257 melanoma) of 36.1 µM. The TGI (BT-549 breast) was 36.3 µM, the TGI (PC-3 prostate) was 31.8 µM and the TGI (NCI-H460 lung) was 34.5 µM. It also gave a TGI (MDA-N) of 43 µM, a TGI (HCT-116 colon) of 59.3 µM and a TGI (MDA-MB-435) of 36.6 µM. For the same molecule, the TGI (OVCAR-8 ovarian) was 37.2 µM, the TGI (CCRF-CEM leukemia) was 22.9 µM and the TGI (SF-268 CNS) was 34.3 µM. The TGI (IGROV1 ovarian) was 28.6 µM, the TGI (NCI-H23 lung) was 53.9 µM and the TGI (COLO 205 colon) was 30.3 µM. It also gave a TGI (SNB-19 CNS) of 65.9 µM, a TGI (A498 renal) of 25 µM and a TGI (A549 NSCLC) of 69.8 µM. For the same molecule, the TGI (TK-10 renal) was over 100 µM, the TGI (SR leukemia) was 24.3 µM and the TGI (RPMI-8226 leukemia) was 16.7 µM. The TGI (SK-MEL-2 melanoma) was 48 µM, the TGI (U251 CNS) was 32.6 µM and the TGI (SN12C renal) was 32 µM. It also gave a TGI (MDA-MB-231 breast) of 35.8 µM, a TGI (UACC-62 melanoma) of 31.1 µM and a TGI (MALME-3M melanoma) of 37.6 µM. The TGI (MOLT-4 leukemia) was 28.7 µM, the TGI (K-562 leukemia) was 39.9 µM and the TGI (CAKI-1 renal) was 40.4 µM. It also gave a TGI (DU-145 prostate) of over 100 µM, a TGI (NCI/ADR-RES ovarian) of 52.2 µM and a TGI (RXF 393 renal) of 33 µM. It also gave a TGI (NCI-H226 lung) of 42.9 µM, a TGI (HOP-92 NSCLC) of 23 µM and a TGI (HCT-15 colon) of 25.8 µM. For the same molecule, the TGI (UO-31 renal) was 31.4 µM, the TGI (SK-OV-3 ovarian) was 66 µM and the TGI (SF-295 CNS) was 34 µM. The TGI (SK-MEL-28 melanoma) was 30.7 µM, the TGI (SW-620 colon) was 56.5 µM and the TGI (SK-MEL-5 melanoma) was 24.9 µM. The TGI (786-0 renal) was 41.7 µM, the TGI (KM12 colon) was 64.8 µM and the TGI (HT29 colon) was 37.3 µM. For the same molecule, the TGI (OVCAR-4 ovarian) was 29.4 µM, the TGI (T-47D breast) was 54.2 µM and the TGI (OVCAR-3 ovarian) was 42.6 µM. It also gave a TGI (SF-539 CNS) of 30.9 µM, a TGI (SNB-75 CNS) of 41.8 µM and a TGI (MCF7 breast) of 41.3 µM. For the same molecule, the TGI (HOP-62 NSCLC) was over 100 µM and the TGI (LOX IMVI melanoma) was 27.9 µM.
